Reference: patent publication US20230302022A1, “PREVENTING OR MITIGATING CHEMOTHERAPY INDUCED ALOPECIA USING VITAMIN D” (priority 2016, published 2023)

Assays:
Long Evans rats = experiment: CIA in chloroleukemic Long Evans rats receiving multi-course chemotherapy; type: in vivo, rat; settings: for ALOPECIA 4+ (number of rats): Cyclophosphamide (CTX)
[1] = system: MIAC51 (chloroleukemia cells); experiment: Chloroleukemia (MIAC51) in rats: cure / survival under chemotherapy with topical calcitriol; type: in vivo, rat; settings: CTX, after Two Rounds of Chemotherapy
Description: For experiments in which rats were transplanted with chloroleukemia, on Day 5 after birth, rats were randomly divided into three groups of 45 each. All rats received 1×10^5 chloroleukemic cell line MIAC51 (i.p.) in 0.1 mL of serum free (SF) RPMI. MIAC51 were cultured in RPMI 1640 supplemented with L-glutamine and 10% fetal bovine serum at 37° C. in a 5% CO2, 100% humidity incubator. Cells were grown to 50% confluency (1.5×106 mL) collected in 50 mL conical tubes, centrifuged at 600 g×10 min. at room temperature and resuspended in SF-RPMI at a concentration of 1×10^6/mL. Group 1 rats received no further treatment. Group 2 rats received topical vehicle and CTX on day 13. […] Topical applications were performed as described above.
On day 23 after birth, a sample of blood was taken from all rats and differentials performed. Rats with leukemia were sacrificed, rats without leukemia were kept and a second differential performed on day 31, at any point if leukemia was detected, animals were sacrificed by CO2 asphyxiation.
On day 5 after birth all rats received 1×105 MIAC51 intraperitoneally in 0.1 mL of serum free (SF) RPMI. MIAC51 were cultured in RPMI 1640 supplemented with L-glutamine and 10% fetal bovine serum at […] in a 5% CO2, 100% humidity incubator. Cells were grown to 50% confluency (1.5×106 mL) collected in 50 mL conical tubes, centrifuged at 600 g for 10 minutes at room temperature and resuspended in SF-RPMI at a concentration of 1×10^6/mL prior to injection.
[…]

O=P1(N(CCCl)CCCl)NCCCO1 (centres unmarked) [CTX, Cyclophosphamide]
ALOPECIA 4+ (number of rats) (Long Evans rats; after First Round of Chemotherapy): 40
ALOPECIA 4+ (number of rats) (Long Evans rats; after Second Round of Chemotherapy): 8
extent of alopecia (grade), all rats (Long Evans rats; cyclophosphamide regimen, after the first round of chemotherapy): +4
Survival Rate, % [1]: 20%
Cured (number of rats) ([1]; of 40): 8
